The source of these data is patent EP4663640A1 (Shanghai Institute of Materia Medica, Chinese Academy of …, priority 2023, dated 2024).

The IC50 is the concentration at which inhibition is half-maximal.

The structures appear in SMILES notation.

The first assay concerns the target T1, hTRPC5 (Homo sapiens, UniProt Q9UL62).
T1 construct: expressed in transfected cells; host or cells: HEK-293
T1 sequence (Q9UL62 1-973): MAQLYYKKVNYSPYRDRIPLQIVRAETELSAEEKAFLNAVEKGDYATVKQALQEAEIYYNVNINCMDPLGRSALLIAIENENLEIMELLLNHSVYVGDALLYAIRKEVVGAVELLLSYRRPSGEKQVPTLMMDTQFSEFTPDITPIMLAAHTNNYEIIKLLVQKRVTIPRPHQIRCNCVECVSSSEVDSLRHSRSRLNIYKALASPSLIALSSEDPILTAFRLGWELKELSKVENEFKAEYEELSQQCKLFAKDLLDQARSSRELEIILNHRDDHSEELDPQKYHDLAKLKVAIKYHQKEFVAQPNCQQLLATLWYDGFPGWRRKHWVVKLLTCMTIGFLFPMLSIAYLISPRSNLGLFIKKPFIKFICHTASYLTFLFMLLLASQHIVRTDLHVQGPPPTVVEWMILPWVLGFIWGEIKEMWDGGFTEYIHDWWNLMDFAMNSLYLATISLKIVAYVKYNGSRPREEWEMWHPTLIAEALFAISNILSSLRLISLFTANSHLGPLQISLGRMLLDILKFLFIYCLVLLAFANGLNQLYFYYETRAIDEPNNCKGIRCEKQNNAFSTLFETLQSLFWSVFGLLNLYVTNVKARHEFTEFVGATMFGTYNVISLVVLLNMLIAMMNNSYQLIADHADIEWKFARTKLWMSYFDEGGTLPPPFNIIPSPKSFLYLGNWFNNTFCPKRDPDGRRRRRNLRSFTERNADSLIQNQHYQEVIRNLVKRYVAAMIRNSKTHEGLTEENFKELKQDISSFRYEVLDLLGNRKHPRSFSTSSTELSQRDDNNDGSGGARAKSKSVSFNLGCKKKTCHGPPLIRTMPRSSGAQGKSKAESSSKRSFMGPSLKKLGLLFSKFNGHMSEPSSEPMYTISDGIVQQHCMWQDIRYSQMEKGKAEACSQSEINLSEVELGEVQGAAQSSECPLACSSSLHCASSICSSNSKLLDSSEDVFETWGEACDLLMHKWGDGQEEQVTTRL
Nature of the assay: TRPC5 inhibitory activity assay (FLIPR calcium fluorescence, Englerin A stimulation).
Conditions: not given
Format: cell-based. Here is the method:
HEK-293 cells expressing hTRPC3, hTRPC4 or hTRPC5 were seeded into black-bottomed 96-well plates coated with poly-lysine (PDL), with 2×10^4 cells per well. After 8 h of culture, the original culture medium was discarded, and 60 µL of Fluo-4/AM dye with a final concentration of 4 µM was added. The plates were incubated at 37 °C for 60 min, and then rinsed five times with calcium flow detection buffer. […] Then, the agonist Englerin A (EA) (MedChemExpress, Shanghai, China, final concentration of 0.3nM) was added, and the fluorescence signal was collected for 600 seconds. The fluorescence signal of the trajectory diagram is represented by F/F0, wherein F is the fluorescence signal at different time points, and F0 is the basic fluorescence signal, that is, the average value of the fluorescence signal at the first 10 time points. […] The area under the curve of the change in fluorescence intensity after adding EA was calculated. IC50 value was calculated using log[Inhibitor] vs. response - Variable slope, taking into account the area under the curve and the log value of the concentration of the compound.
As to `Cn1c(=O)n(CCCO)c(=O)c2c1nc(C1CCC3(CC1)OCCO3)n2Cc1ccc(Cl)cc1` [Example E13, 7-(4-chlorobenzyl)-1-(3-hydroxypropyl)-3-methyl-8-(1,4-dioxacyclo[4.5]dec-8-yl)-3,7-dihydro-1H-purine-2,6-dione], the IC50 was 82.1 nM.

Staying with this assay, now noted: Table 1, TRPC5 channels, HEK-293 cells expressing hTRPC5; read-out: FLIPR IC50.
For `Cn1c(=O)n(CCCO)c(=O)c2c1nc(C1(F)CCC(C(F)(F)F)CC1)n2Cc1ccc(F)cc1Cl` (stereo not drawn) [Example E67, 7-(2-chloro-4-fluorobenzyl)-8-(1-fluoro-4-(trifluoromethyl)cyclohexyl)-1-(3-hydroxypropyl)-3-methyl-3,7-dihydro-1H-purine-2,6-dione], the IC50 worked out at 18.9 nM.
As for `CCn1c(=O)n(CCCO)c(=O)c2c1nc(C1=CCC(C(F)(F)F)CC1)n2Cc1ccc(Cl)c(F)c1` (stereo not drawn) [Example E57, 7-(4-chloro-3-fluorobenzyl)-3-ethyl-1-(3-hydroxypropyl)-8-(4-(trifluoromethyl)cyclohex-1-en-1-yl)-3,7-dihydro-1H-purine-2,6-dione], the IC50 was 52.9 nM.
Take `Cn1c(=O)n(CCCO)c(=O)c2c1nc(C1=Cc3ccccc3C1)n2Cc1ccc(Cl)cc1` [Example E20, 7-(4-chlorobenzyl)-1-(3-hydroxypropyl)-8-(1H-inden-2-yl)-3-methyl-3,7-dihydro-1H-purine-2,6-dione]: the IC50 came out at 83.8 nM.
`CC(C)OC1CC=C(c2nc3c(c(=O)n(CCCO)c(=O)n3C)n2Cc2ccc(Cl)cc2)CC1` (stereo not drawn) [Example E8, 7-(4-chlorobenzyl)-1-(3-hydroxypropyl)-8-(4-isopropoxycyclohex-1-en-1-yl)-3-methyl-3,7-dihydro-1H-purine-2,6-dione]: the IC50 amounted to 19.3 nM.
Regarding `Cn1c(=O)n(CCCO)c(=O)c2c1nc(C1(F)CCC(C(F)(F)F)CC1)n2Cc1ccc(Cl)cc1F` (stereo not drawn) [Example E71, 7-(4-chloro-2-fluorobenzyl)-8-(1-fluoro-4-(trifluoromethyl)cyclohexyl)-1-(3-hydroxypropyl)-3-methyl-3,7-dihydro-1H-purine-2,6-dione], the IC50 was 0.27 nM.
With `Cn1c(=O)n(CCCO)c(=O)c2c1nc(C1(F)CCC(C#N)CC1)n2Cc1ccc(Cl)cc1` (stereo not drawn) [Example E40, 4-(7-(4-chlorobenzyl)-1-(3-hydroxypropyl)-3-methyl-2,6-dioxo-2,3,6,7-tetrahydro-1H-purin-8-yl)-4-fluorocyclohexane-1-carbonitrile], the IC50 turned out to be 3.7 nM.
As to `C/C(=N\OC(C)(C)C)c1nc2c(c(=O)n(CCCO)c(=O)n2C)n1Cc1ccc(Cl)cc1` [Example E27, (E)-8-(1-(tert-butoxyimino)ethyl)-7-(4-chlorobenzyl)-1-(3-hydroxypropyl)-3-methyl-3,7-dihydro-1H-purine-2,6-dione], the IC50 stood at 64.7 nM.
On the same count and under the same terms, next, `CCn1c(=O)n(CCCO)c(=O)c2c1nc(C1(F)CCC(C(F)(F)F)CC1)n2Cc1ccc(Cl)c(F)c1` (stereo not drawn) [Example E51, 7-(4-chloro-3-fluorobenzyl)-3-ethyl-8-(1-fluoro-4-(trifluoromethyl)cyclohexyl)-1-(3-hydroxypropyl)-3,7-dihydro-1H-purine-2,6-dione]: 3.19 nM; `Cn1c(=O)n(CCCO)c(=O)c2c1nc(C1=CC(F)C(C)(C)CC1)n2Cc1ccc(Cl)cc1` (stereo not drawn) [Example E34]: 49.1 nM.
`CCC1CCC(F)(c2nc3c(c(=O)n(CCCO)c(=O)n3C)n2Cc2ccc(Cl)cc2)CC1` (stereo not drawn) [Example E30, 7-(4-chlorobenzyl)-8-(4-ethyl-1-fluorocyclohexyl)-1-(3-hydroxypropyl)-3-methyl-3,7-dihydro-1H-purine-2,6-dione]: the IC50 stood at 281 nM.
Take `Cn1c(=O)n(CCCO)c(=O)c2c1cc(C1=CCCC1)n2Cc1ccc(Cl)cc1` [Example E1, 5-(4-chlorobenzyl)-6-(cyclopent-1-en-1-yl)-3-(3-hydroxypropyl)-1-methyl-1,5-dihydro-2H-pyrrolo[3,2-d]pyrimidine-2,4(3H)-dione]: the IC50 amounted to 69.4 nM.
In the case of `Cn1c(=O)n(CCCO)c(=O)c2c1nc(C1(F)CCC(C(F)(F)F)CC1)n2Cc1ccc(F)cc1F` (stereo not drawn) [Example E65, 7-(2,4-difluorobenzyl)-8-(1-fluoro-4-(trifluoromethyl)cyclohexyl)-1-(3-hydroxypropyl)-3-methyl-3,7-dihydro-1H-purine-2,6-dione], the IC50 is 2.85 nM.
On to `COC1(c2nc3c(c(=O)n(CCCO)c(=O)n3C)n2Cc2ccc(Cl)cc2)CCC(C(F)(F)F)CC1` (stereo not drawn) [Example E22, 7-(4-chlorobenzyl)-1-(3-hydroxypropyl)-8-(1-methoxy-4-(trifluoromethyl)cyclohexyl)-3-methyl-3,7-dihydro-1H-purine-2,6-dione], for which the half-inhibitory concentration (IC50) worked out at 198 nM.
For the compound `CC1CCC(F)(c2nc3c(c(=O)n(CCCO)c(=O)n3C)n2Cc2ccc(Cl)cc2)CC1` (stereo not drawn) [Example E39, 7-(4-chlorobenzyl)-8-(1-fluoro-4-methylcyclohexyl)-1-(3-hydroxypropyl)-3-methyl-3,7-dihydro-1H-purine-2,6-dione], the IC50 was found to be 4.63 nM.
The same measure, in the same setting: the result for `Cn1c(=O)n(CCCO)c(=O)c2c1nc(C1CCC(C(F)(F)F)CC1)n2Cc1ccc(Cl)cc1` (stereo not drawn) [Example E12, 7-(4-chlorobenzyl)-1-(3-hydroxypropyl)-3-methyl-8-(4-(trifluoromethyl)cyclohexyl)-3,7-dihydro-1H-purine-2,6-dione] reads 13.5 nM; that for `Cn1c(=O)n(CCCO)c(=O)c2c1cc(C1CCCC1)n2Cc1ccc(Cl)cc1` [Example E2, 5-(4-chlorobenzyl)-6-cyclopentyl-3-(3-hydroxypropyl)-1-methyl-1,5-dihydro-2H-pyrrolo[3,2-d]pyrimidine-2,4(3H)-dione], 112 nM.
As for `Cn1c(=O)n(CCCO)c(=O)c2c1nc(C1=CCC(C)(C)CC1)n2Cc1ccc(Cl)cc1` [Example E11, 7-(4-chlorobenzyl)-8-(4,4-dimethylcyclohex-1-en-1-yl)-1-(3-hydroxypropyl)-3-methyl-3,7-dihydro-1H-purine-2,6-dione], the IC50 was 8.79 nM.
The same measure, in the same setting: the result for `Cn1c(=O)n(CCCO)c(=O)c2c1nc(C1=CCC(C(F)(F)F)CC1)n2Cc1ccc(Cl)cc1` (stereo not drawn) [Example E41, 7-(4-chlorobenzyl)-1-(3-hydroxypropyl)-3-methyl-8-(4-(trifluoromethyl)cyclohex-1-en-1-yl)-3,7-dihydro-1H-purine-2,6-dione] reads 55.5 nM.
In the case of `Cn1c(=O)n(CCCO)c(=O)c2c1nc(C1(F)CCC(C(F)(F)F)CC1)n2Cc1ccc(C#N)cc1` (stereo not drawn) [Example E73, 4-((8-(1-fluoro-4-(trifluoromethyl)cyclohexyl)-1-(3-hydroxypropyl)-3-methyl-2,6-dioxo-1,2,3,6-tetrahydro-7H-purin-7-yl)methyl)benzonitrile], the IC50 was determined as 1.88 nM.
On the same count and under the same terms, the result for `Cn1c(=O)n(CCCO)c(=O)c2c1nc(/C=N/OC(C)(C)C)n2Cc1ccc(Cl)cc1` [Example E18, (E)-7-(4-chlorobenzyl)-1-(3-hydroxypropyl)-3-methyl-2,6-dioxo-2,3,6,7-tetrahydro-1H-purine-8-carbaldehyde-O-(tert-butyl)oxime] reads 43.8 nM; that for `CC(C)n1c(=O)n(CCCO)c(=O)c2c1nc(C1(F)CCC(C(F)(F)F)CC1)n2Cc1ccc(Cl)cc1` (stereo not drawn) [Example E53, 7-(4-chlorobenzyl)-8-(1-fluoro-4-(trifluoromethyl)cyclohexyl)-1-(3-hydroxypropyl)-3-isopropyl-3,7-dihydro-1H-purine-2,6-dione], 41.4 nM; that for `CC(C)n1c(=O)n(CCCO)c(=O)c2c1nc(C1CC1C1CCCC1)n2Cc1ccc(Cl)cc1` (stereo not drawn) [Example E15, 7-(4-chlorobenzyl)-8-(2-cyclopentylcyclopropyl)-1-(3-hydroxypropyl)-3-isopropyl-3,7-dihydro-1H-purine-2,6-dione], 76 nM.
On the same count and under the same terms, next, `Cn1c(=O)n(CCCO)c(=O)c2c1nc(C1(F)CCC(C(F)(F)F)CC1)n2Cc1ccc(F)c(Cl)c1` (stereo not drawn) [Example E69, 7-(3-chloro-4-fluorobenzyl)-8-(1-fluoro-4-(trifluoromethyl)cyclohexyl)-1-(3-hydroxypropyl)-3-methyl-3,7-dihydro-1H-purine-2,6-dione]: 0.37 nM.
